2 compounds from PMC2364625, “Characterization and site-directed mutagenesis of Wzb, an O-phosphatase from Lactobacillus rhamnosus” (BMC Biochemistry, 2008) can be followed below.

Assay [1] deals with T1, Wzb (Lacticaseibacillus rhamnosus, UniProt Q58Z13).
T1 construct: 6His-tagged fusion, pQE30 (pGL387, wzb ORF in SacI-KpnI), E. coli NM522, purified under urea and renatured on Ni-NTA, 27 kDa; tag not reported as cut; forward primer starts at codon 2 (Ile)
T1 sequence (Q58Z13 2-254): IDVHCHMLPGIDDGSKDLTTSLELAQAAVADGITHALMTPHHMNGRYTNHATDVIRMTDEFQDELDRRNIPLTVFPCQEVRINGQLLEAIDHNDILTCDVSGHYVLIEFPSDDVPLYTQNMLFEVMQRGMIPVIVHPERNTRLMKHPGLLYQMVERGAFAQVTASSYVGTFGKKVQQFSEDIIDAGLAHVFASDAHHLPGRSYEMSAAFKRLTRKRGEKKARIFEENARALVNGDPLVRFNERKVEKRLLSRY
The experiment in a line: pNPP hydrolysis, absorbance at […] nm. In kind it is biochemical. The settings on record: inhibitor; increasing inhibition from 1 mM to 100 mM, no residual activity at 100 mM (data not shown); substrate pNPP.

Assay [2] concerns the target T1, Wzb. In words: pNPP hydrolysis, absorbance at […] nm. The format is biochemical. The settings on record: 2.5 mM pNPP; MES-HEPES, 1% BSA; Cu2+ essential, Co2+ stimulates; optimum pH 7.3, 75 °C.

Take `[O]=[V]([OH])([OH])[OH]` [sodium orthovanadate]: the inhibition result in assay [1] is recorded as “Wzb activity on pNPP was inhibited by sodium orthovanadate (Na3VO4)”.
As for `O=[N+]([O-])c1ccc(OP(=O)(O)O)cc1` [p-nitrophenyl-phosphate], the “pNPP hydrolysis, absorbance at 405 nm” value in assay [2] is “The purified Wzb fusion protein was active on p-nitrophenyl-phosphate (pNPP)”.
